Laboratory results: patent US7763647B2, “Topical solution containing a chromane or chromene derivative” (Laboratories Expanscience, priority 2001, dated 2010)

Legend:
[1] = Tests of solubility of genistein in polyethylene glycols or their ethoxylated homologs (HPLC assay); settings: for Genistein assayed (% by weight in the solution): room temperature, stirred 30 minutes
Experimental: Tests of Solubility of Genistein in Polyethylene Glycols or Their Ethoxylated Homologs Procedure:
The quantity of genistein used in powdered form is accurately weighed in a 250 ml beaker. A precise quantity of excipient is then added. The mixture is then vigorously stirred (mechanical stirring) at room temperature for 30 minutes. The product is then directly assayed according to the protocol described below.
The assay of genistein is carried out by reverse phase high-performance liquid chromatography (C18 stationary phase—acetic acid/acetonitrile mobile phase) and detection by UV spectrophotometry (absorption maximum of the compound).

[2] = system: actinic erythema induced by UVA+B irradiation; assay: Reduction of actinic erythema induced by UVA+B irradiation, double blind test with placebo, visual reading; format: in vivo, healthy volunteers; settings: when solubilized beforehand in PEG 300
Experimental: The placebo (P1) and the active products (P2), (P3) and (P4) were thus used to carry out this test.
Several steps were followed: • Preliminary step: Evaluation of the individual Minimum Erythemal Dose (MEDi). • First step: Application of products P1 to P4 to a 35 cm^2 surface. The quantity applied is exactly 4 mg/cm^2. The zones for applying the products are modified by rotation from one volunteer to another. • Second step: Irradiation of the treated zones and of one untreated zone (control zone) fifteen minutes after application of the products, by positioning the MEDi at the third hole. • Third steps: Visual readings of the erythema 6 and 24 hours after the irradiation. a.) Choice of the Subjects […]
Beforehand, with the same apparatus, the individual MED of each subject was determined on the top of the back. […]
The irradiation times for the treated zones and for the untreated zone are determined so as to place the MEDi at the third hole.
The administered UV doses are calculated with the aid of a calibrated ROBERTSON-BERGER dosimeter equipped with a UVB reading head. The results are expressed directly as values read on the dosimeter and expressed as MED (1 MED=25 mJ/cm^2). […]
A numerical quantification corresponding to the degree of erythema is performed according to the following table: […]

[3] = excipient PEG 200, genistein used 12.0% by weight
[4] = excipient PEG 300, genistein used 8.0% by weight
[5] = excipient PEG 300, genistein used 10.0% by weight
[6] = excipient PEG 300, genistein used 12.0% by weight
[7] = excipient PEG 400, genistein used 12.0% by weight
[8] = excipient PEG 600, genistein used 12.0% by weight

Genistein assayed (% by weight in the solution) ([1]; excipient Laureth 11 (oxyethylenated C12 alcohol), genistein used 12.0% by weight): 9.5 % by weight in the solution
Solubility ([1]; excipient Laureth 11, genistein used 12.0% by weight): high
Genistein assayed (% by weight in the solution) ([1]; excipient Liponic EG1 (ethoxylated glycerol), genistein used 10.0% by weight): 9.1 % by weight in the solution
Solubility ([1]; excipient Liponic EG1, genistein used 10.0% by weight): high
Solubility [1, 3]: high
Genistein assayed (% by weight in the solution) [1, 3]: 10.9 % by weight in the solution
Solubility [1, 4]: high
Genistein assayed (% by weight in the solution) [1, 4]: 7.6 % by weight in the solution
Solubility [1, 5]: high
Genistein assayed (% by weight in the solution) [1, 5]: 9.3 % by weight in the solution
Solubility [1, 6]: high
Genistein assayed (% by weight in the solution) [1, 6]: 11.2 % by weight in the solution
Solubility [1, 7]: high
Genistein assayed (% by weight in the solution) [1, 7]: 10.1 % by weight in the solution
Genistein assayed (% by weight in the solution) ([1]; excipient PEG400 dilaurate (fatty diester of PEG), genistein used 12.0% by weight): 9.5 % by weight in the solution
Solubility ([1]; excipient PEG400 dilaurate, genistein used 12.0% by weight): high
Solubility [1, 8]: high
Genistein assayed (% by weight in the solution) [1, 8]: 10.7 % by weight in the solution
Structure (SMILES): O=c1c(-c2ccc(O)cc2)coc2cc(O)cc(O)c12 [Genistein]
Concentration at which genistein can be incorporated, in soluble form, into PEG 300 ([1]; PEG 300): ~12 % by weight relative to the total weight of the solution
Antierythemal activity of genistein [2]: increased
